Test results reported in patent publication US9447086B2, “6-amino acid heteroaryldihydropyrimidines for the treatment and prophylaxis of hepatitis B virus infection” (priority 2012, dated 2016).
Values after ≈ are worked out from the molar mass of the structure shown. Read-outs that look alike come from different tables or passages of the source.

How the values were obtained:
[1] = Lyophilisation solubility assay (Lysa); assay type: physicochemical; conditions: phosphate buffer, pH 6.5, aqueous buffer, thermodynamic from solid
Procedure, shortened: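 Duplicate samples from 10 mM DMSO stocks are dried, redissolved in 0.05 M phosphate buffer pH 6.5, stirred 1 h, shaken 2 h and left overnight. Filtrate and its 1/10 dilution are quantified by direct UV or HPLC-UV, giving solubility in μg/mL.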

[2] = Cytotoxicity (CC50) in HepDE19 cells, CCK-8 cell viability; assay type: cell-based; conditions: human, HepDE19 cells
Excerpt: HepG2.2.15 and HepDE19 are stably-transfected cell lines containing the HBV genome. Both cell lines are derived from the hepatoblastoma cell line Hep G2 (American Type Culture Collection, ATCC® HB-8065™) by the published procedures described in references: MA Selles et al. Proc. Natl. Acad. Sci. USA 1987, 84, 1005-1009 and H Guo et al. Journal of Virology 2007, 81, 12472-12484, respectively. Both cell lines were maintained in Dulbecco's modified Eagle's medium (DMEM)-F12 medium supplemented with 10% fetal bovine serum, 100 U/mL penicillin, 100 μg/mL streptomycin, and 0.5 mg/mL of G418.
Five days after treatment, cell viability was measured by addition of 20 μL of CCK-8 reagent. Two hours after incubation at 37° C., the absorbance at wavelengths of 450 nm and 630 nm (OD450 and OD630) was recorded by a plate reader.

HBV [3] = test: Anti-HBV activity in vitro in HepG2.2.15 cells (extracellular HBV DNA by qPCR); assay type: cell-based, Hepatitis B virus; conditions: Hepatitis B virus
Procedure, shortened: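 HepG2.2.15 cells, which constitutively produce HBV, were seeded overnight and then treated for 5 days with half-log serially diluted compounds at 0.5% final DMSO. Extracellular HBV DNA in culture supernatant was extracted and quantified by qPCR.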

[4] = Metabolic stability study in human microsome; assay type: in vitro ADME
Procedure, shortened: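 Human liver microsomes (0.5 mg/mL) with 1 μM compound in 100 mM phosphate pH 7.4 at 37 °C, started with 1 mM NADPH or an NADPH-regenerating system. Samples taken at 0, 3, 6, 9, 15 and 30 min, quenched in methanol. Parent remaining measured by LC-MS/MS; no-cofactor controls included.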

HBV [5] = test: Selectivity index (CC50 value/EC50 value); assay type: cell-based, Hepatitis B virus
Excerpt: Based on FDA guidance, in order to support clinical testing in humans, the assessment of acceptable risk-benefit has to be achieved by providing clear evidence of in vitro antiviral activity (EC50) and cytotoxicity (CC50). It is important to establish that an investigational product has antiviral activity at concentrations that can be achieved in vivo without inducing toxic effects to cells. Furthermore, in a cell culture model, apparent antiviral activity of an investigational product can be the result of host cell death after exposure to the product. The relative effectiveness of the compound in inhibiting viral replication compared to inducing cell death is defined as the selectivity index (CC50 value/EC50 value). It is desirable to have a high selectivity index giving maximum antiviral activity with minimal cell toxicity.
The relative effectiveness of the compound in inhibiting viral replication compared to inducing cell death is defined as the selectivity index (CC50 value/EC50 value). It is desirable to have a high selectivity index giving maximum antiviral activity with minimal cell toxicity.

[6] = HepG2.2.15 cells, in-house data, read-out: EC50

SMILES | solubility thermodynamic [1] [µg/mL] | CC50 at 5 days ([2]; read-out: CC50) [nM] | EC50 (HBV [3]; [6]) [nM] | Human Hepatic Clearance [4] [mL/min/kg] | Selectivity index (CC50/EC50) (HBV [5]) | CC50 at 5 days [2] [nM] | EC50 (HBV [3]; HepG2.2.15) [nM]
CCOC(=O)C1=C(CN2CCOC[C@H]2C(=O)O)NC(c2nccs2)=N[C@H]1c1ccc(F)c(F)c1F [Example 44, (S)-4-[(R)-5-Ethoxycarbonyl-2-thiazol-2-yl-6-(2,3,4-trifluoro-phenyl)-3,6-dihydro-pyrimidin-4-ylmethyl]-morpholine-3-carboxylic acid] | > 626 | 49000 | 4.6 | 4.46 | 10748 |  | 
COC(=O)C1=C(CN2CCOC[C@H]2C(=O)O)NC(c2ncc(F)cc2F)=N[C@H]1c1ccc(F)cc1Cl [Example 6, (S)-4-[(R)-6-(2-Chloro-4-fluoro-phenyl)-2-(3,5-difluoro-pyridin-2-yl)-5-methoxycarbonyl-3,6-dihydro-pyrimidin-4-ylmethyl]-morpholine-3-carboxylic acid] | > 100 | 27000 | 7.5 | 6.28 | 3600 |  | 
CCOC(=O)C1=C(CN2CC(F)(F)CC[C@H]2C(=O)O)NC(c2nccs2)=N[C@H]1c1ccccc1Cl [Example 111, (R)-6-((S)-2-Carboxy-5,5-difluoro-piperidin-1-ylmethyl)-4-(2-chloro-phenyl)-2-thiazol-2-yl-1,4-dihydro-pyrimidine-5-carboxylic acid ethyl ester] | > 620 | > 100000 | 5.8 | 5.31 | 17241 |  | 
CCOC(=O)C1=C(CN2CC(F)(F)CC[C@@H]2C(=O)O)NC(c2nccs2)=N[C@H]1c1ccc(F)cc1Br [Example 108, (R)-4-(2-Bromo-4-fluoro-phenyl)-6-((R)-2-carboxy-5,5-difluoro-piperidin-1-ylmethyl)-2-thiazol-2-yl-1,4-dihydro-pyrimidine-5-carboxylic acid ethyl ester] | 410 (≈ 698 µM) | 33000 | 18 | 4.88 | 1784 |  | 
CCOC(=O)C1=C(CN2CC(F)(F)C[C@H]2C(=O)O)NC(c2nccs2)=N[C@H]1c1cccc(F)c1F [Example 50, (R)-6-((S)-2-Carboxy-4,4-difluoro-pyrrolidin-1-ylmethyl)-4-(2,3-difluoro-phenyl)-2-thiazol-2-yl-1,4-dihydro-pyrimidine-5-carboxylic acid ethyl ester] | > 580 | 26000 | 14 | 0 | 1905 |  | 
COC(=O)C1=C(CN2CCOC[C@H]2C(=O)O)NC(c2nccs2)=N[C@H]1c1ccccc1Br [Example 71, (S)-4-[(R)-6-(2-Bromo-phenyl)-5-methoxycarbonyl-2-thiazol-2-yl-3,6-dihydro-pyrimidin-4-ylmethyl]-morpholine-3-carboxylic acid] | > 642 | > 100000 | 4.8 | 2.81 | >20833 |  | 
COC(=O)C1=C(CN2CC(F)(F)C[C@H]2C(=O)O)NC(c2nccs2)=N[C@H]1c1ccc(F)cc1Br [Example 84, (R)-4-(2-Bromo-4-fluoro-phenyl)-6-((S)-2-carboxy-4,4-difluoro-pyrrolidin-1-ylmethyl)-2-thiazol-2-yl-1,4-dihydro-pyrimidine-5-carboxylic acid methyl ester] | > 668 |  |  | 9.3 | >41667 | > 100000 | 2.4
CC(C)OC(=O)C1=C(CN2CCOC[C@H]2C(=O)O)NC(c2nccs2)=N[C@H]1c1cccc(F)c1Cl [Example 101, (S)-4-[(R)-6-(2-Chloro-3-fluoro-phenyl)-5-isopropoxycarbonyl-2-thiazol-2-yl-3,6-dihydro-pyrimidin-4-ylmethyl]-morpholine-3-carboxylic acid] | > 571 | 91000 | 14 | 4.18 | 6741 |  | 
CCOC(=O)C1=C(CN2CCO[C@H](C)[C@H]2C(=O)O)NC(c2nccs2)=N[C@H]1c1ccccc1Cl [Example 117, (2R,3S)-4-[(R)-6-(2-Chloro-phenyl)-5-ethoxycarbonyl-2-thiazol-2-yl-3,6-dihydro-pyrimidin-4-ylmethyl]-2-methyl-morpholine-3-carboxylic acid] | > 628 | > 100000 | 1.5 | 0 | 66667 |  | 
COC(=O)C1=C(CN2CC(F)(F)C[C@H]2C(=O)O)NC(c2ncoc2C)=N[C@H]1c1ccc(F)cc1Cl [Example 102, (R)-6-((5)-2-Carboxy-4,4-difluoro-pyrrolidin-1-ylmethyl)-4-(2-chloro-4-fluoro-phenyl)-2-(5-methyl-oxazol-4-yl)-1,4-dihydro-pyrimidine-5-carboxylic acid methyl ester] | > 635 | 23000 | 9 | 0.97 | 2599 |  | 
CCOC(=O)C1=C(CN2CC(F)(F)C[C@H]2C(=O)O)NC(c2nccn2C)=N[C@H]1c1ccc(F)cc1Cl [Example 36, (R)-6-((S)-2-Carboxy-4,4-difluoro-pyrrolidin-1-ylmethyl)-4-(2-chloro-4-fluoro-phenyl)-2-(1-methyl-1H-imidazol-2-yl)-1,4-dihydro-pyrimidine-5-carboxylic acid ethyl ester] | > 637 | 23000 | 18 | 6.22 | 1251 |  | 
COC(=O)C1=C(CN2CC(F)(F)C[C@H]2C(=O)O)NC(c2nccs2)=N[C@H]1c1ccc(F)c(F)c1Cl [Example 74, (R)-6-((S)-2-Carboxy-4,4-difluoro-pyrrolidin-1-ylmethyl)-4-(2-chloro-3,4-difluoro-phenyl)-2-thiazol-2-yl-1,4-dihydro-pyrimidine-5-carboxylic acid methyl ester] | > 655 | 72000 | 2.1 | 0.51 | 34286 |  | 
COC(=O)C1=C(CN2CCOC[C@]2(C)C(=O)O)NC(c2nccs2)=N[C@H]1c1ccc(F)c(F)c1Cl (single isomer, unassigned) [Example 79] | > 660 | 76000 | 4.5 | 2.18 | 16889 |  | 
CCOC(=O)C1=C(CN2CCOC[C@H]2C(=O)O)NC(c2nccs2)=N[C@H]1c1ccc(Cl)c(F)c1 [Example 83, (S)-4-[(S)-6-(4-Chloro-3-fluoro-phenyl)-5-ethoxycarbonyl-2-thiazol-2-yl-3,6-dihydro-pyrimidin-4-ylmethyl]-morpholine-3-carboxylic acid] | > 652 | 25000 | 1.5 | 1.77 | 16440 |  | 
